The values below come from ChEMBL document CHEMBL1142134, “Characterization of squalene epoxidase of Saccharomyces cerevisiae by applying terbinafine-sensitive variants” (2007).

Calls of active or inactive are those of the source. No cut-off for these calls is given here.

The test system of assay [1] is Saccharomyces cerevisiae. Kind of assay: Increased sensitivity to growth inhibition in Saccharomyces cerevisiae KLN1 carrying erg1 pL37P allele after 24 hrs relative to wild type at 30 degC. Type of assay: functional.
The test system of assay [2] is Saccharomyces cerevisiae. Kind of assay: Increased sensitivity to growth inhibition in Saccharomyces cerevisiae KLN1 carrying erg1 pR269G allele after 24 hrs relative to wild type at 30 degC. It counts as functional.
For assay [3], the system named is Saccharomyces cerevisiae. Kind of assay: Growth inhibition in Saccharomyces cerevisiae KLN1 carrying erg1 pR269G allele at 1 ug/ml after 24 hrs st 30 degC. Type of assay: functional, organism-based.
The subject of assay [4] is Saccharomyces cerevisiae. The assay can be described thus: Growth inhibition in Saccharomyces cerevisiae KLN1 carrying erg1 pL37P allele at 0.2 ug/ml after 24 hrs at 30 degC. Type of assay: functional, organism-based.
In assay [5] the test system is Saccharomyces cerevisiae. The assay can be described thus: Growth inhibition in Saccharomyces cerevisiae KLN1 carrying erg1 pG30S allele at 0.5 ug/ml after 24 hrs at 30 degC. Type of assay: functional, organism-based.

For the compound `CC(=O)N1CCN(c2ccc(OCC3COC(Cn4ccnc4)(c4ccc(Cl)cc4Cl)O3)cc2)CC1` (centres undefined) [KETOCONAZOLE], the Fold change in assay [1] stood at 5; in assay [2], 2.
On to `CN(C/C=C/c1ccccc1)Cc1cccc2ccccc12` [NAFTIFINE], for which the figures for the Fold change in assay [1] and in assay [2] were greater than 25 and greater than 10, respectively.
On to `CN(C/C=C/C#CC(C)(C)C)Cc1cccc2ccccc12` [TERBINAFINE], for which the Fold change in assay [1] is recorded as greater than 10; in assay [2] it was greater than 5. The result in assay [3], in assay [4] and in assay [5] was Active.
